Patent US8900845B2, “Methods and uses of KSR kinase, and mutations thereof” (Washington University, priority 2011, dated 2014)

Tests used:
[1] = target: BRAF/CRAF dimers (Homo sapiens, UniProt P04049+P15056); settings: cells overexpressing myc-CRAF and BRAF, drug for 1 hour, CRAF immunoprecipitates immunoblotted for BRAF
Experimental: (§1) Dimerization experiments: For most experiments, constructs for wild-type and mutated BRAF, CRAF and KSR1 were appended with epitope tags (FLAG, 6× His, Myc, GFP) and were expressed by transient transfection into 293T cells. Cells were lysed in a buffer containing 1% NP40 and 0.1% deoxycholate. Cells were pretreated with drugs for 1 hour prior to lysis. Immunoprecipitates were analyzed by gel electrophoresis and immunoblotted after transfer to nitrocellulose membranes using standard methods.
(§2) Cells grown in serum, expressing combinations of KSR, BRAF and CRAF, were treated with both drugs. Co-immunoprecipitations were then performed to examine dimer formation.
(§3) KSR immunoprecipitates were prepared from cells overexpressing FLAG-KSR and BRAF after treatment with the indicated drug for 1 hour and immunoblotted using antibodies to BRAF.

[2] = target: FLAG-KSR and BRAF dimer (Homo sapiens, UniProt P15056); experiment: Co-immunoprecipitation of KSR/BRAF dimers in drug-treated cells; format: cell-based; settings: cells overexpressing FLAG-KSR and BRAF, drug for 1 hour, KSR immunoprecipitates immunoblotted for BRAF
Experimental: as §1, §2, §3

[3] = target: KSR kinase activity towards MEK (Homo sapiens, UniProt P04049); settings: cells co-expressing KSR and CRAF treated with 10 μM for one hour; immunoprecipitates pre-treated with 50 μM PLX
Experimental: Kinase reactions: Cells transfected with various constructs were treated or not with PLX4720 for 1-2 hours. Cells were lysed with 1% NP40 and immunoprecipitates prepared. In vitro kinase reactions were performed in a standard buffer with 10 mM MgCl2, with 1 ug of kinase dead MEK, and 100 uM cold ATP. In some experiments, to inhibit contaminating Raf activity, 50 uM PLX4720 was preincubated with the reactions.
To test whether KSR might be activated by CRAF, we co-expressed KSR and CRAF and induced dimerization of CRAF with KSR by adding a low dose (10 μM) of PLX4720. KSR immunoprecipitates were then prepared and tested for kinase activity in vitro. To inhibit any contaminating RAF kinase activity co-precipitating with KSR, we preincubated the immunoprecipitates with an inhibitory dose of PLX4720 (50 μM). […] Cells were co-transfected with WT or ATP binding deficient KSR and CRAF and immunoprecipitates prepared after cells were treated with an activating dose of PLX (10 μM) for one hour. Immunoprecipitates were prepared, pre-treated with 50 μM PLX to inhibit co-precipitating RAF activity and then tested for kinase activity using purified MEK.

[4] = test system: MEK phosphorylation (pMEK); experiment: MEK activation (pMEK immunoblot) in cells co-expressing KSR and CRAF; format: cell-based; settings: saturating dose, 2 hours
Experimental: Kinase reactions: Cells transfected with various constructs were treated or not with PLX4720 for 1-2 hours. Cells were lysed with 1% NP40 and immunoprecipitates prepared.
In these experiments, we tested the function of the CRAF/KSR dimer by co-expressing both proteins and using PLX4720 (FIG. 1F) or GDC0879 (data not shown) to induce dimer formation between the two proteins. […] Cells expressing the indicated constructs were treated with a saturating dose of PLX for 2 hours before cell lysates were prepared and analyzed for pMEK by immunoblotting.

[5] = target: T1, KSR and CRAF dimer (Homo sapiens, UniProt P04049); experiment: Co-immunoprecipitation of KSR/CRAF dimers in drug-treated cells; format: cell-based; settings: cells overexpressing FLAG-KSR and myc-CRAF, drug for 1 hour, FLAG-KSR immunoprecipitates immunoblotted for CRAF (myc)
T1 construct: expressed in transfected cells; host or cells: 293T cells
T1 sequence (P04049 whole entry): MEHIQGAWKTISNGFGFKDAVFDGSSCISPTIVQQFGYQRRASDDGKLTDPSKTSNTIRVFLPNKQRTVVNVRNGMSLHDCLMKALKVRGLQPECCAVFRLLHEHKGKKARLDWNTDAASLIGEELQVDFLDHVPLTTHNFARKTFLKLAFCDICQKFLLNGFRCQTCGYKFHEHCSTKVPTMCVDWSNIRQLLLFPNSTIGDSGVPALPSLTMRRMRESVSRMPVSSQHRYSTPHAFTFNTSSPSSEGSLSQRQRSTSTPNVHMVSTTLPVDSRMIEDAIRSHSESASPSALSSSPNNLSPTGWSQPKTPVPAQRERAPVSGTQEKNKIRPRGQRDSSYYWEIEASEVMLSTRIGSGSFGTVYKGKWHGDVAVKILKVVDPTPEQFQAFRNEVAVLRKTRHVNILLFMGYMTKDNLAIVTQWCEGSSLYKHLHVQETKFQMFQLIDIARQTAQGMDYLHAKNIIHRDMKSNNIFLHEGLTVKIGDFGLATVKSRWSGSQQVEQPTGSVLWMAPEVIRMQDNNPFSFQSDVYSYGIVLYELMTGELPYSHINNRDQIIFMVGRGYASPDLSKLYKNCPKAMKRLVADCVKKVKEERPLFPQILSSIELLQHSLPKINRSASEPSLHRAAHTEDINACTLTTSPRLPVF
T1 sequence (Q61097 whole entry partner): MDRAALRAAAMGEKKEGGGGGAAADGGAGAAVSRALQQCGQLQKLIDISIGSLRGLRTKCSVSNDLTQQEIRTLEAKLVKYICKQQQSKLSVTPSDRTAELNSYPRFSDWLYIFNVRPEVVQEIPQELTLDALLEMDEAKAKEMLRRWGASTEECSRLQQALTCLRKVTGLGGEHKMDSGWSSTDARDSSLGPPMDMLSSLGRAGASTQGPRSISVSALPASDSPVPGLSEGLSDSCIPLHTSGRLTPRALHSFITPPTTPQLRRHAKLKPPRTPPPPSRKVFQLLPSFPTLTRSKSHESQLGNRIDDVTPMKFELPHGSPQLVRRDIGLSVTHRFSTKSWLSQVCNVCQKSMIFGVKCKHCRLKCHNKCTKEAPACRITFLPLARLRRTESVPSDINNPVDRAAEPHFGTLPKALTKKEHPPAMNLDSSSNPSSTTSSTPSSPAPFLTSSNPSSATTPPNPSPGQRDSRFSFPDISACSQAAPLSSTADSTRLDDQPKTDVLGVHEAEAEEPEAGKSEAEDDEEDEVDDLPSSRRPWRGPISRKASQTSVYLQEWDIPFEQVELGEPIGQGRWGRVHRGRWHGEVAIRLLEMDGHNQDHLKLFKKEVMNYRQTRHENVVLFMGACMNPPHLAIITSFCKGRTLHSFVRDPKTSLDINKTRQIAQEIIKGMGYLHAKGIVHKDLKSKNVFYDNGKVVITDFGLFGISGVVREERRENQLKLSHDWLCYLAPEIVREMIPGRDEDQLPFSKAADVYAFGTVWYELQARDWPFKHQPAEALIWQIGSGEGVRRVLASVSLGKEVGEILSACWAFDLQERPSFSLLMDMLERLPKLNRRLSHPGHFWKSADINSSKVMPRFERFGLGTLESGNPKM
Experimental: as §1, §2, §3

Sequence of KSR kinase activity towards MEK (Q61097 whole entry partner): as above
Sequence of KSR kinase activity towards MEK (P04049 whole entry): as the sequence (P04049 whole entry) above
Sequence of FLAG-KSR and BRAF dimer (P15056 whole entry): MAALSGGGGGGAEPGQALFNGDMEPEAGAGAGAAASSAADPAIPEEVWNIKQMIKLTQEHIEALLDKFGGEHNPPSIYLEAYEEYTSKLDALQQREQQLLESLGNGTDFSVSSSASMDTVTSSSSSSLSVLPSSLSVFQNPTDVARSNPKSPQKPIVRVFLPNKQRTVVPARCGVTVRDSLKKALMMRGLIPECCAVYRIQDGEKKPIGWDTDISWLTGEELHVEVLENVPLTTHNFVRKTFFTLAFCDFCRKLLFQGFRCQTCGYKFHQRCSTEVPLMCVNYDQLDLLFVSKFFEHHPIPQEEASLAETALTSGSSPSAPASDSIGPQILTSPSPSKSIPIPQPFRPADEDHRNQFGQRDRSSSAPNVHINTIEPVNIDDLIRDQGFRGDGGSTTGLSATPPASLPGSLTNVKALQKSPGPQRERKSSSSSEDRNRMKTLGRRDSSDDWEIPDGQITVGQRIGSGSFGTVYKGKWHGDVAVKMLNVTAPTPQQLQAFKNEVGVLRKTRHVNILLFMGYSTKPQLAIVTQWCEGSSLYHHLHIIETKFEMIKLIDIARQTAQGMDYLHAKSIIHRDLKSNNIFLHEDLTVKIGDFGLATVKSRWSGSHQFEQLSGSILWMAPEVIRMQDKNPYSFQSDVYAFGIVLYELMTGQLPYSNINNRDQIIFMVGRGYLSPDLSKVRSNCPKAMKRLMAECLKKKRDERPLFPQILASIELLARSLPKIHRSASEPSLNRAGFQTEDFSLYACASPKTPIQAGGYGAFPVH
Sequence of FLAG-KSR and BRAF dimer (Q61097 whole entry partner): as the sequence (Q61097 whole entry partner) above
Sequence of BRAF/CRAF dimers (P15056 whole entry): as the sequence (P15056 whole entry) above
Sequence of BRAF/CRAF dimers (P04049 whole entry): as the sequence (P04049 whole entry) above

## CCCS(=O)(=O)Nc1ccc(F)c(C(=O)c2c[nH]c3ncc(Cl)cc23)c1F [PLX4720]
[1]
  dimer formation between BRAF and CRAF: but not PLX4720 induces dimers between BRAF and CRAF
[2]
  dimer formation between KSR and BRAF: but not PLX4720 can induce dimer formation between FLAG-KSR and BRAF
[3]
  kinase activity towards MEK in KSR immunoprecipitates: induced kinase activity towards MEK in the KSR immunoprecipitates
[4]
  MEK activation (pMEK): MEK was still activated
[5]
  dimer formation between KSR and CRAF: induce dimer formation between KSR and CRAF
